Experimental data reported in PMC6159992, “Selective disruption of TLR2-MyD88 interaction inhibits inflammation and attenuates Alzheimer’s pathology” (The Journal of Clinical Investigation, 2018).

Legend:
[1] = Hippocampal level of WT TIDM after intranasal administration (ESI-MS); format: in vivo; conditions: male, B6SJL-Tg(APPSwFlLon,PSEN1*M146L*L286V)6799Vas/J (5XFAD), mouse, hippocampus (brain tissue), inhaled or intranasal, Tg mice, 1 intranasal dose 0.1 mg/kg BW, 60 minutes after administration, read-out: level of WT TIDM peptide in hippocampus
Method: It is becoming clear that glial inflammation plays an important role in the loss of neurons in AD and other neurodegenerative disorders ([7], [9], [22]–[24]). […] We first determined whether the WT TIDM peptide could enter into the hippocampus. Tg mice were treated with TIDM peptides intranasally, and after 60 minutes of administration, we detected WT TIDM peptide in the hippocampus of Tg mice by electrospray ionization–coupled mass spectrometry (ESI-MS) (Figure 5, A and C). […] The level of WT TIDM peptide was 23.33 ± 14.14 ng/g brain tissue in the hippocampus of WT TIDM–treated Tg mice compared with nil in the saline-treated Tg mice. By infrared scanning, we also detected TIDM peptide in hippocampus after intranasal treatment (Supplemental Figure 10). […]
Tg mice (6 months of age) received 1 intranasal dose of WT TIDM peptide (0.1 mg/kg BW). After 60 minutes of treatment, mice were perfused with sterile saline, and hippocampi were homogenized and supernatant analyzed for WT TIDM by ESI-MS (A, WT TIDM standard; B, untreated 5XFAD-Tg; C, WT TIDM–treated 5XFAD-Tg). […] Cells positive for Iba-1 (E, CA1; F, CA3), p-p65 (G, CA1; H, CA3), and iNOS (I, CA1; J, CA3) were counted in 2 sections (2 images/slide) from each of 6 different mice (n = 6) per group. ^†P < 0.001 versus non-Tg; ^††P < 0.001 versus Tg; 2-sample t test. […]

[2] = test system: 5XFAD-Tg mice; experiment: Gross motor activity of 5XFAD-Tg mice; format: in vivo, mouse; conditions: 0.1 mg/kg BW/2 d intranasal, 30 days, n=8
Source text: The ultimate objective of neuroprotection in AD is to improve and/or protect memory. Major functions of the hippocampus are to generate and organize long-term memory and spatial learning. Therefore, we examined whether WT TIDM peptide protected memory and learning in Tg mice. As expected, Tg mice took much longer to find the food reward hole and had greater latency (P < 0.001 [= 0.0000213]) with higher errors (P < 0.001 [= 0.0000251]) in the Barnes maze as compared with non-Tg mice. […] Likewise, on the T-maze test, untreated Tg mice also had fewer positive turns (P < 0.001 [= 0.0000440]) and a higher number of negative turns (P < 0.001 [= 0.000223]) than did age-matched non-Tg mice (Figure 6, L and M). […] We also monitored the short-term memory of Tg mice using the novel object recognition (NOR) test. […]
treatment, hippocampal extracts of all groups of mice (n=4 per group) were analyzed for protein levels of Aβ by Western blot using 82E1 mAb. […] Results were analyzed by […]
Figure S14. […] After 30d of treatment, ELISA quantification of Aβ1-40 (A, C & E) and Aβ1-42 (B, D & F) was performed in serum (A & B) and TBS (C & D) and (TBS+Triton X-100) (E & F) extracted hippocampal tissues. […]
Figure S15. […] After 30d of treatment, hippocampal extracts of all groups of mice (n=4 per group) were analyzed for phospho-tau and total tau by Western blot. […] Results were analyzed by two-sample t-tests. […]

[3] = biological target: T1, cMyc-tagged C-terminal TIR domain of TLR2 protein (cTLR2), purified recombinant protein (mouse, UniProt Q9QUN7 640-784); experiment: SPR; cTLR2 (0.8 mg/ml, PBS) immobilised on a 500-kDa carboxymethyl dextran gold sensor slide (Reichert 4SPR); WT TIDM and mTIDM peptides injected in PBS running buffer, 30 μl/min, 2.5 min association, 3 min dissociation; KD from the response at equilibrium versus peptide concentration; conditions: both partners purified
T1 construct: TLR2, mouse, C-terminal TIR domain, amino acids 640-784; subcloned from the full-length construct pLenti-cMyc-DDK/Tlr2 (Origene); also called cMyc-tagged cTLR2 recombinant protein; TLR2 (in the SPR methods)
T1 sequence (Q9QUN7 640-784): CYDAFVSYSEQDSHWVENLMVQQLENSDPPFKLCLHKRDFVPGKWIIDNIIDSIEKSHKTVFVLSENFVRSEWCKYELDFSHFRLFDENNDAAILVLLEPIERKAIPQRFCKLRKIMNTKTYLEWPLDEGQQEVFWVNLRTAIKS

Molecule: CC[C@H](C)[C@H](NC(=O)[C@H](CCCCN)NC(=O)[C@@H](NC(=O)[C@H](CCC(N)=O)NC(=O)[C@H](CCCNC(=N)N)NC(=O)[C@@H](N)CC(=O)O)[C@@H](C)CC)C(=O)N[C@@H](Cc1c[nH]c2ccccc12)C(=O)N[C@@H](Cc1ccccc1)C(=O)N[C@@H](CCC(N)=O)C(=O)N[C@@H](CC(N)=O)C(=O)N[C@@H](CCCNC(=N)N)C(=O)N[C@@H](CCCNC(=N)N)C(=O)N[C@@H](CCSC)C(=O)N[C@@H](CCCCN)C(=O)N[C@@H](Cc1c[nH]c2ccccc12)C(=O)N[C@@H](CCCCN)C(=O)N[C@@H](CCCCN)C(=O)N1CCC[C@H]1C(=O)NCC(=O)N[C@@H](C)C(=O)N[C@@H](Cc1c[nH]cn1)C(=O)N[C@@H](CCC(N)=O)C(=O)N[C@@H](CCCCN)C(=O)O [WT TIDM]
- tissue level at time at 1 h [1]: 23.3 ± 14.1 ng/g
- gross motor activity (movements, horizontal activity, rest time, stereotypy) [2]: neither the WT TIDM nor the mTIDM peptide modulated the gross motor activity of Tg mice

Molecule: CC[C@H](C)[C@H](NC(=O)[C@H](CCCCN)NC(=O)[C@@H](NC(=O)[C@H](CCC(N)=O)NC(=O)[C@H](CCCNC(=N)N)NC(=O)[C@@H](N)CC(=O)O)[C@@H](C)CC)C(=O)N[C@@H](Cc1c[nH]c2ccccc12)C(=O)N[C@@H](Cc1ccccc1)C(=O)N[C@@H](CCC(N)=O)C(=O)N[C@@H](CC(N)=O)C(=O)N[C@@H](CCCNC(=N)N)C(=O)N[C@@H](CCCNC(=N)N)C(=O)N[C@@H](CCSC)C(=O)N[C@@H](CCCCN)C(=O)N[C@@H](Cc1c[nH]c2ccccc12)C(=O)N[C@@H](CCCCN)C(=O)N[C@@H](CCCCN)C(=O)N1CCC[C@H]1C(=O)NCC(=O)N[C@@H](Cc1c[nH]c2ccccc12)C(=O)N[C@@H](Cc1c[nH]cn1)C(=O)N[C@@H](CCC(N)=O)C(=O)N[C@@H](CC(=O)O)C(=O)O [mTIDM]
- gross motor activity (movements, horizontal activity, rest time, stereotypy) [2]: neither the WT TIDM nor the mTIDM peptide modulated the gross motor activity of Tg mice

Molecule: DRQIKIWFQNRRMKWKKPGAHQK (Drosophila; the printed order is kept)
- Kd [3]: 8 µM

B1: mutated TIDM peptide (peptide)
peptide: DRQIKIWFQNRRMKWKKPGWHQD
notes: Drosophila; MyD88, mouse, residues 245-250 of the CD loop with two underlined mutations (A to W, K to D); positions 247 and 250 counted from the printed limits 245 and 250; also called mTIDM
- Kd [3]: 19 µM
